Data reported in patent US12398154B2, “Azaquinazoline pan-KRas inhibitors” (Mirati Therapeutics, Inc., priority 2020, dated 2025).
pIC50: −log10 of the molar value.

Tests used:
[1] = biological target: KRas G12D (Homo sapiens, UniProt P01116, G12D); assay: biochemical;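 also: TR-FRET displacement binding assay on KRas, read after a one-hour incubation at room temperature, IC50 fitted from percent-of-control values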
Protocol: (§2) The ability of a compound to bind to KRas was measured using a TR-FRET displacement assay. […] After a 60-minute incubation at room temperature, the reaction was measured using a BMG LABTECH CLARIO star Plus via TR-FRET. […] The POC values were fit to a 4-parameter IC50 equation and the IC50 value reported.

[2] = tested on: pERK in HCT116 cells; assay: Inhibition of KRas phosphorylation of ERK (Cisbio HTRF pERK assay); conditions: Homo sapiens, HCT-116, read-out: Inhibition (HTRF IC50) of KRas-mediated Phosphorylation of ERK, HCT116
Protocol: (§3) To harvest cells from flask using 0.05% Trypsin/EDTA solution. Add 10 mL of media to stop trypsinizing. Pipette the cells into a conical bottom 50 mL centrifuge tube and centrifuge 5 min×1000 rpm. • 2. Re-suspend the cell pellet in media, take a cell count, and then adjust the cell density using fresh media. • 3. Seed 6,000 cells into cell culture plate with 50 μL media. […] Incubate cell plate overnight in a 37° C., 5% CO2 incubator. • Compound titrations • 1. Use Tecan to complete the compound addition. Compounds start from 10 uM top, 3-fold dilution, and 10 doses. The final DMSO concentration is 0.8%. Dispensed 0.2 uM Trametinib as Min control. • 2. Incubate cell plate for 3 hrs in the incubator. • Detection with cisbio pERK HTRF kit • 1. […] At the end of the compound treatment, flick-off the media. • 3. Add 35 μL of lysis buffer per well using a Multidrop Combi. Then place on a plate agitator shaking at 300 rpm at 4° C. for 40 mins. • 4. Make up the HTRF antibody buffer. For each assay plate, mix 50 μL of d2-conjugate antibody with 950 μL of detection buffer. Similarly, mix 50 μL of Cryptate antibody with 950 μL of detection buffer. Then mix the two diluted antibodies together. • 5. Dispense 3.4 μL the antibody buffer to wells of an empty assay plate. Seal the plate and centrifuge plate 30 sec×1000 rpm. • 6. At the end of the 4° C. lysis, centrifuge the lysate plates 3 mins×1500 rpm. • 7. Use the Bravo to transfer 13.6 μL of lysate from cell culture plate to assay plate.
(§4) Then incubate assay plate for 2 hrs at room temperature. […] At the end of incubation, read plate on the Envision after centrifuging plate 30 sec× • 1000 rpm.

[3] = tested on: pERK in MKN1 cells; assay: as above; conditions: Homo sapiens, MKN-1, 3 h, read-out: Inhibition (HTRF IC50) of KRas-mediated Phosphorylation of ERK, MKN1
[4] = biological target: KRas G12R (Homo sapiens, UniProt P01116, G12R); assay: biochemical;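 also: TR-FRET displacement assay of compound binding to KRas, read after one hour at room temperature, potency from a four-parameter fit of percent-of-control values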
KRas G12R, sequence (P01116 1-169 isoform P01116-2 G12R): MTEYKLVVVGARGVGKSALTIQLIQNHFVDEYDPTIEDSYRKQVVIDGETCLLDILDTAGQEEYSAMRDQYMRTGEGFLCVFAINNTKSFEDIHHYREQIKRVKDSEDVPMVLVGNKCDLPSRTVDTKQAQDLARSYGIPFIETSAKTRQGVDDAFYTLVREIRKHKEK
Protocol: as §2

[5] = tested on: pERK in H460 cells; assay: Inhibition of KRas phosphorylation of ERK (Cisbio HTRF pERK assay); conditions: Homo sapiens, NCI-H460, read-out: Inhibition (HTRF IC50) of KRas-mediated Phosphorylation of ERK, H460
[6] = biological target: KRas G12V (Homo sapiens, UniProt P01116, G12V); assay: biochemical;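 also: KRas binding measured by TR-FRET displacement at room temperature, IC50 fitted from percent of control values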
KRas G12V, sequence (P01116 1-169 isoform P01116-2 G12V): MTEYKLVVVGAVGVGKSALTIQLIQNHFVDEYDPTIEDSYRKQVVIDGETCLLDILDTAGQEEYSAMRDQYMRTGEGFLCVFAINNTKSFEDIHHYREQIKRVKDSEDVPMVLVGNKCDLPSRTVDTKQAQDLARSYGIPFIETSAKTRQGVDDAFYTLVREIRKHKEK
Protocol: as §2

[7] = tested on: pERK in PSN1 cells; assay: Inhibition of KRas phosphorylation of ERK (Cisbio HTRF pERK assay); conditions: Homo sapiens, PSN1, 3 h, read-out: Inhibition (HTRF IC50) of KRas-mediated Phosphorylation of ERK, PSN1
Protocol: as §3, §4

[8] = tested on: pERK in H727 cells; assay: as above; conditions: Homo sapiens, NCI-H727, read-out: Inhibition (HTRF IC50) of KRas-mediated Phosphorylation of ERK, H727
[9] = tested on: pERK in A549 cells; assay: as above; conditions: Homo sapiens, A549, read-out: Inhibition (HTRF IC50) of KRas-mediated Phosphorylation of ERK, A549
[10] = tested on: pERK in ASPC1 cells; assay: as above; conditions: Homo sapiens, ASPC1, read-out: Inhibition (HTRF IC50) of KRas-mediated Phosphorylation of ERK, AsPC-1
[11] = tested on: phospho-ERK in PSN-1 (G12R) cells; assay: Inhibition of KRas-mediated phosphorylation of ERK (in-cell western); format: cell-based; conditions: Homo sapiens, PSN1, 3 hours compound, phospho-ERK normalized to GAPDH
How it was run: (§1)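 After a 3-hour incubation with diluted compound in 0.5% DMSO, cells are fixed, permeabilized and stained overnight at 4° C for phosphorylated ERK and GAPDH.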

[12] = tested on: phospho-ERK in NCI-H727 (G12V) cells; assay: as above; format: cell-based; conditions: Homo sapiens, NCI-H727, 3 h, 3 hours compound, phospho-ERK normalized to GAPDH
How it was run: as §1

[13] = tested on: phospho-ERK in MKN1 (WTdep) cells; assay: as above; format: cell-based; conditions: Homo sapiens, MKN-1, 3 hours compound, phospho-ERK normalized to GAPDH
How it was run: as §1

[14] = tested on: phospho-ERK in AsPC-1 (G12D) cells; assay: as above; format: cell-based; conditions: Homo sapiens, ASPC1, 3 h, 3 hours compound, phospho-ERK normalized to GAPDH
How it was run: as §1

[15] = tested on: phospho-ERK in NCI-H460 (Q61H) cells; assay: as above; format: cell-based; conditions: Homo sapiens, NCI-H460, 3 h, 3 hours compound, phospho-ERK normalized to GAPDH
How it was run: as §1

[16] = tested on: phospho-ERK in HCT116 (G13D) cells; assay: as above; format: cell-based; conditions: Homo sapiens, HCT-116, 3 hours compound, phospho-ERK normalized to GAPDH
How it was run: as §1

[17] = tested on: phospho-ERK in A549 (G12S) cells; assay: as above; format: cell-based; conditions: Homo sapiens, 3 hours compound, phospho-ERK normalized to GAPDH
How it was run: as §1

[18] = tested on: pERK in H358 cells; assay: Inhibition of KRas phosphorylation of ERK (Cisbio HTRF pERK assay); conditions: Homo sapiens, NCI-H358, read-out: Inhibition (HTRF IC50) of KRas-mediated Phosphorylation of ERK, H358
Protocol: as §3, §4

[19] = tested on: phospho-ERK in NCI-H358 (G12C) cells; assay: Inhibition of KRas-mediated phosphorylation of ERK (in-cell western); format: cell-based; conditions: Homo sapiens, 3 hours compound, phospho-ERK normalized to GAPDH
How it was run: as §1

[20] = biological target: KRas G12C (Homo sapiens, UniProt P01116, G12C); assay: biochemical;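 also: binding to KRas assessed by TR-FRET displacement after one hour incubation at room temperature, potency fitted from percent-of-control values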
KRas G12C, sequence (P01116 1-169 isoform P01116-2 G12C): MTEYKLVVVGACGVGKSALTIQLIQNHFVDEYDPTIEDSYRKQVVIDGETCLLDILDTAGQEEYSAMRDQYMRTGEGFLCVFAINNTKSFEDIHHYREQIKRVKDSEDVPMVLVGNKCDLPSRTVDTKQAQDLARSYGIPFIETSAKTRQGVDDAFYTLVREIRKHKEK
Protocol: as §2

KRas G12D, sequence (P01116 1-169 isoform P01116-2 G12D): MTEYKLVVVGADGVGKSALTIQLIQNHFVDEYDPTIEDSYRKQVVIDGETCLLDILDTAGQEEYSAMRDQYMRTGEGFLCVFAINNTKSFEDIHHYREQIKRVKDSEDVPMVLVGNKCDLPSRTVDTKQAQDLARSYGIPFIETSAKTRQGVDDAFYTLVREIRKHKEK

| pIC50 [1] | pIC50 [2] | pIC50 [3] | pIC50 [4] | pIC50 [5] | pIC50 [6] | pIC50 [7] | pIC50 [8] | pIC50 [9] | pIC50 [10] | pIC50 [18] | pIC50 [20] | SMILES | IC50 [11] [nM] | IC50 [12] [nM] | IC50 [13] [nM] | IC50 [14] [nM] | IC50 [15] [nM] | IC50 [16] [nM] | IC50 [17] [nM] | IC50 [19] [nM] |
| --- | --- | --- | --- | --- | --- | --- | --- | --- | --- | --- | --- | --- | --- | --- | --- | --- | --- | --- | --- | --- |
| ≥ 8.70 | 8.15 | 9.00 | ≥ 8.70 | 8.40 | ≥ 8.70 | 6.04 | 8.40 | 8.70 | 8.15 | – | – | CCc1c(F)ccc2cc(O)cc(-c3ncc4c(N5C[C@@H]6C[C@H](C5)[C@H](O)C6)nc(OC[C@@]56CCCN5C[C@H](F)C6)nc4c3F)c12 (single isomer, unassigned) [Example 140] | 1 | 28 | 2 | 27 | 17 | 11 | 9 | – |
| ≥ 8.70 | 6.16 | 8.52 | ≥ 8.70 | 7.26 | ≥ 8.70 | 5.87 | 7.47 | 7.20 | 7.70 | 8.40 | – | CCc1c(F)ccc2cc(O)cc(-c3ncc4c(N5CCC[C@]6(CC(=O)N6)C5)nc(OC[C@@]56CCCN5C[C@H](F)C6)nc4c3F)c12 (single isomer, unassigned) [Example 194] | – | 89 | 7 | 92 | 65 | – | – | – |
| 8.15 | – | – | ≥ 8.70 | – | ≥ 8.70 | – | – | – | – | – | – | CCc1c(F)ccc2cc(O)cc(-c3ncc4c(NC56CC(O)(C5)C6)nc(OC[C@@]56CCCN5C[C@H](F)C6)nc4c3F)c12 [Example 166] | ≥ 10000 | ≥ 10000 | – | – | – | ≥ 10000 | ≥ 10000 | 328 |
| – | 7.09 | 8.15 | – | 7.38 | – | 5.42 | 7.44 | 7.36 | 8.10 | – | – | CCc1c(F)ccc2cc(O)cc(-c3ncc4c(N5CCC[C@@H](O)C5)nc(OC[C@@]56CCCN5C[C@H](F)C6)nc4c3F)c12 [Example 193] | – | 133 | 4 | 94 | 44 | 63 | – | 41 |
| ≥ 8.70 | 6.21 | 7.64 | ≥ 8.70 | 6.74 | ≥ 8.70 | ≤ 5.00 | 6.46 | – | 7.24 | 6.95 | – | CCc1c(F)ccc2cc(O)cc(-c3ncc4c(N5CC6C(=O)NC(=O)C6C5)nc(OC[C@@]56CCCN5C[C@H](F)C6)nc4c3F)c12 (some centres unmarked) [Example 197] | – | 841 | 11 | 144 | 293 | – | – | – |
| – | 7.96 | 8.70 | – | 8.30 | – | 6.00 | 8.22 | 8.30 | 8.52 | – | – | CCc1c(F)ccc2cc(O)cc(-c3ncc4c(N5CCOC[C@@](C)(O)C5)nc(OC[C@@]56CCCN5C[C@H](F)C6)nc4c3F)c12 [Example 200] | – | 67 | 3 | 47 | 22 | 21 | 3 | 13 |
| ≥ 8.70 | 6.73 | 7.82 | ≥ 8.70 | 6.93 | ≥ 8.70 | 5.62 | 7.38 | 6.65 | 7.64 | 7.92 | – | C#Cc1c(F)ccc2cc(O)cc(-c3ncc4c(N5CCOC[C@@](C)(O)C5)nc(OC[C@@]56CCCN5C[C@H](F)C6)nc4c3F)c12 [Example 201, (S)-4-(7-(8-ethynyl-7-fluoro-3-hydroxynaphthalen-1-yl)-8-fluoro-2-(((2R,7aS)-2-fluorohexahydro-1H-pyrrolizin-7a-yl)methoxy)pyrido[4,3-d]pyrimidin-4-yl)-6-methyl-1,4-oxazepan-6-ol] | – | 110 | 2 | 91 | 100 | – | – | – |
| ≥ 8.70 | 7.33 | 8.30 | ≥ 8.70 | 7.55 | ≥ 8.70 | 5.60 | 7.48 | 8.05 | 8.15 | 8.40 | ≥ 8.70 | CCc1c(F)ccc2cc(O)cc(-c3ncc4c(N5CCC[C@@](C)(O)C5)nc(OCC5(CN6CCCC6)CC5)nc4c3F)c12 [Example 202, (3R)-1-[7-(8-ethyl-7-fluoro-3-hydroxy-1-naphthyl)-8-fluoro-2-[[1-(pyrrolidin-1-ylmethyl)cyclopropyl]methoxy]pyrido[4,3-d]pyrimidin-4-yl]-3-methyl-piperidin-3-ol] | – | 159 | 3 | 60 | 74 | – | – | – |
| – | – | – | – | – | – | – | – | – | – | – | – | CCc1c(F)ccc2cc(O)cc(-c3ncc4c(N5CCCC(O)C5)nc(OC[C@@]56CCCN5C[C@H](F)C6)nc4c3F)c12 (stereo partly drawn) [Example 299, 1-(7-(8-ethyl-7-fluoro-3-hydroxynaphthalen-1-yl)-8-fluoro-2-(((2R,7aS)-2-fluorohexahydro-1H-pyrrolizin-7a-yl)methoxy)pyrido[4,3-d]pyrimidin-4-yl)piperidin-3-ol] | ≥ 10000 | 126 | – | – | – | 333 | 108 | 29 |
| ≥ 8.70 | 6.34 | 7.85 | ≥ 8.70 | 6.67 | ≥ 8.70 | 5.41 | 6.70 | – | 7.27 | 7.34 | – | CCc1c(F)ccc2cc(O)cc(-c3ncc4c(N5CCC[C@@](C)(O)C5)nc(OC[C@@]56CCCN5[C@@H](CO)CC6)nc4c3F)c12 [Example 301, (R)-1-(7-(8-ethyl-7-fluoro-3-hydroxynaphthalen-1-yl)-8-fluoro-2-(((3R,7aS)-3-(hydroxymethyl)tetrahydro-1H-pyrrolizin-7a(5H)-yl)methoxy)pyrido[4,3-d]pyrimidin-4-yl)-3-methylpiperidin-3-ol] | – | 520 | 15 | 216 | 416 | – | – | – |
| ≥ 8.70 | 6.75 | 8.52 | ≥ 8.70 | 6.92 | ≥ 8.70 | 5.60 | 7.09 | 7.19 | 7.51 | 7.59 | – | CCc1c(F)ccc2cc(O)cc(-c3ncc4c(N5CCC[C@@](C)(O)C5)nc(OC[C@]56CCCN5[C@H](CO)CC6)nc4c3F)c12 [Example 302, (R)-1-(7-(8-ethyl-7-fluoro-3-hydroxynaphthalen-1-yl)-8-fluoro-2-(((3S,7aR)-3-(hydroxymethyl)tetrahydro-1H-pyrrolizin-7a(5H)-yl)methoxy)pyrido[4,3-d]pyrimidin-4-yl)-3-methylpiperidin-3-ol] | – | 360 | 5 | 152 | 193 | – | – | – |
